Data as given in patent US9434701B2, “Aminoquinoxaline derivatives for treatment of neurodegenerative diseases” (CENTRE NATIONAL DE LA RECHERCHE SCIENTIFIQUE (CNRS), priority 2011, dated 2016).
Like-named read-outs stand apart in the source and are kept apart here.

How the values were obtained:
Format in all cases: cell-based
[1] = test system: dopaminergic neurons (TH+) of rat embryo ventral midbrain culture; assay: neuritogenic activity: neurite outgrowth per cell / differentiation of TH+ neurons; conditions: Rattus norvegicus, Neuron; compound at 100 nM; read-out: Diff in % of control ± SEM
Description: Quinoxaline derivatives were tested on a dopaminergic neuron spontaneous degeneration model in culture according to the protocol described in the article by F. Schmidt et al. […] This model consists of culturing rat embryo ventral midbrain. This part of the brain in culture contains a proportion of dopaminergic neurons of 5% of the total neurons; the other neurons are mainly GABAergic. These cultures are also composed of glial cells, i.e., astrocytes, oligodendrocytes and microglia. These cultures are characterized by progressive neuron death. […] To assess the neuritogenic activity of compounds according to the invention, neurite outgrowth per cell was quantified using the Neurite Outgrowth software developed by Xplora Nova. At least 60 neurons per condition were photographed and studied.

[2] = test system: dopaminergic neurons (TH+) of rat embryo ventral midbrain culture; assay: dopaminergic neuron spontaneous degeneration model in culture, TH+ neuron count after 8 days (Schmidt et al. protocol); conditions: Rattus norvegicus, Neuron, 192 h; compound at 100 nM; 8 days of culture; read-out: TH+ neurons in % of control ± SEM
Description: Quinoxaline derivatives were tested on a dopaminergic neuron spontaneous degeneration model in culture according to the protocol described in the article by F. Schmidt et al. […] This model consists of culturing rat embryo ventral midbrain. This part of the brain in culture contains a proportion of dopaminergic neurons of 5% of the total neurons; the other neurons are mainly GABAergic. These cultures are also composed of glial cells, i.e., astrocytes, oligodendrocytes and microglia. These cultures are characterized by progressive neuron death.

[3] = test system: fetal dopaminergic neurons (TH+) in culture; assay: dopaminergic neuron spontaneous degeneration model, second protocol (Mourlevat et al.), TH+ neuron count after 10 days; conditions: Rattus norvegicus, 240 h, read-out: TH+ neurons in % of control ± Std. Err.
Description: This second protocol is described in the article by Mourlevat, P. P. Michel et al. Molecular Pharmacology 2003, 64:578-586 (“Prevention of Dopaminergic Neuronal Death by Cyclic AMP in Mixed Neuronal/Glial Mesencephalic Cultures Requires the Repression of Presumptive Astrocytes”). […] Compounds according to the invention were evaluated at 50 μM except compound 4bc which was assessed at 100 μM.

[4] = compound at 50 μM, 10 days of culture, one experiment in triplicate

## CCCCCCc1nc2ccc(N)cc2nc1CCCC [Compound 4ed]
[1]
  activity at 0.1 µM: 104%
[2]
  activity at 0.1 µM: 115%

## Nc1ccc2ncc(-c3ccccc3)nc2c1 [Compound 4ac]
[3]
  activity at 50 µM: 189 ± 11%

## Cc1nc2ccc(N)c(Cl)c2nc1-c1ccccc1 [Compound 8bc]
[3]; [4]
  activity at 50 µM: 129 ± 8%

## C#CCNc1ccc2nc(C)c(-c3ccc(F)cc3)nc2c1 [Compound 9bm]
[3]; [4]
  activity at 50 µM: 166 ± 15%

## CCCCc1cnc2ccc(N)cc2n1 [Compound 4ad]
[1]
  activity at 0.1 µM: 118%
[2]
  activity at 0.1 µM: 101%

## CCCCc1nc2cc(N)ccc2nc1C [Compound 4bd]
[1]
  activity at 0.1 µM: 102%
[2]
  activity at 0.1 µM: 121%

## Cc1nc2ccc(N)c(Br)c2nc1-c1ccccc1 [Compound 7bc]
[3]; [4]
  activity at 50 µM: 153 ± 12%

## C#CCNc1ccc2nc(C)c(-c3ccccc3)nc2c1 [Compound 9bc]
[3]; [4]
  activity at 50 µM: 174 ± 15%

## COc1ccc(-c2nc3cc(N)ccc3nc2-c2ccccc2)cc1 [Compound 4ch]
[3]; [4]
  activity at 50 µM: 130 ± 10%
